Measured values: ChEMBL document CHEMBL1128327, “L-O-(2-malonyl)tyrosine: a new phosphotyrosyl mimetic for the preparation of Src homology 2 domain inhibitory peptides” (J Med Chem, 1995)
Values belong to the compound of their own block, whether it stands above or below them. Square brackets hold non-standard residues; d marks the D form. Peptide text beside a SMILES is read from it. * marks the point of attachment. pY = N[C@@H](Cc1ccc(OP(=O)(O)O)cc1)C(=O)O; X1 = O=C(O)C(C(=O)O)*

Legend:
Type in all cases: functional
[1] = target: Growth factor receptor-bound protein 2 (Homo sapiens, UniProt P62993); assay: Inhibition of binding to Growth factor receptor bound protein 2 SH2 domain
[2] = Inhibitory activity against SH2 domain of PI3-kinase p85
[3] = target: Proto-oncogene tyrosine-protein kinase Src (Homo sapiens, UniProt P12931); assay: Inhibitory activity against Src protein tyrosine kinase SH2 domain
[4] = target: T1, Tyrosine-protein phosphatase non-receptor type 11 (Homo sapiens, UniProt Q06124); assay: Inhibitory activity against SH2 domain of SH-PTP2 (N-terminal) binding
T1 sequence (Q06124 whole entry): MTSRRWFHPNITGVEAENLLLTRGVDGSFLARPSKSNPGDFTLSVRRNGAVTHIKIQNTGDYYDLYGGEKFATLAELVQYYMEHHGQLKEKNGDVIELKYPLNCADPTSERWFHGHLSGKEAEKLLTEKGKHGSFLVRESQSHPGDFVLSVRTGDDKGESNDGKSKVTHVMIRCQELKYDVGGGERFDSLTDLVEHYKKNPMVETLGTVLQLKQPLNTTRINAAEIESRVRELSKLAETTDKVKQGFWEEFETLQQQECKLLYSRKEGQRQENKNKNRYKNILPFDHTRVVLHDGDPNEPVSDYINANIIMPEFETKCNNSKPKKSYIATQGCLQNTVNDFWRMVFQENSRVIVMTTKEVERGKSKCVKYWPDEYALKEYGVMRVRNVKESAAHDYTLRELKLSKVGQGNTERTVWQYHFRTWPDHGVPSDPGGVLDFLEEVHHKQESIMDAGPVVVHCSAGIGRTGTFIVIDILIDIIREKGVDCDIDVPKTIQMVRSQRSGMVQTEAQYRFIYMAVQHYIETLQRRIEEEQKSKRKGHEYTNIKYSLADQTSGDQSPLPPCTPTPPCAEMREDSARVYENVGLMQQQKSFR

Proto-oncogene tyrosine-protein kinase Src, sequence (P12931 2-536 limits assumed): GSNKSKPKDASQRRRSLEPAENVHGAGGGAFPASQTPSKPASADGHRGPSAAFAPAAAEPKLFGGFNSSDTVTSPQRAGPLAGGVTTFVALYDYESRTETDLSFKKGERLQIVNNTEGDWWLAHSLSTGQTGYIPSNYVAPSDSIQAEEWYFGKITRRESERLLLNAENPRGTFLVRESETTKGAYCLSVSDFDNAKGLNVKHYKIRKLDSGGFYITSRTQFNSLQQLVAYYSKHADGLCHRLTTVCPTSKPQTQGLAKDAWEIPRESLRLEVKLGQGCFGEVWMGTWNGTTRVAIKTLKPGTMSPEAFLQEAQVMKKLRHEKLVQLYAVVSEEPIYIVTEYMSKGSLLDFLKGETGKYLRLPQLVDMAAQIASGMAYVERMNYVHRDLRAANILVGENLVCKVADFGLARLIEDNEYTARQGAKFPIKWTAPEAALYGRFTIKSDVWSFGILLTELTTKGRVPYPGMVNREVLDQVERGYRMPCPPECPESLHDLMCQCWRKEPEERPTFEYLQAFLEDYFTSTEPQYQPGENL

Compound: CC[C@H](C)[C@H](NC(=O)[C@H](CC(N)=O)NC(=O)[C@@H](NC(=O)[C@H](Cc1ccc(OP(=O)(O)O)cc1)NC(=O)[C@H](CC(N)=O)NC(C)=O)C(C)C)C(=O)N[C@@H](CCC(=O)O)C(N)=O (Ac-N[pY]VNIE-NH2)
- IC50 [1]: 0.9 µM

Compound: CSCC[C@H](NC(=O)[C@@H]1CCCN1C(=O)[C@@H](NC(=O)[C@H](Cc1ccc(OC(C(=O)O)C(=O)O)cc1)NC(=O)[C@H](CC(=O)O)NC(C)=O)C(C)C)C(=O)N[C@@H](CC(C)C)C(N)=O (Ac-DY(X1)VPML-NH2)
- IC50 [2]: 14.2 µM

Compound: CSCC[C@H](NC(=O)[C@@H]1CCCN1C(=O)[C@@H](NC(=O)[C@H](Cc1ccc(OP(=O)(O)O)cc1)NC(=O)[C@H](CC(=O)O)NC(C)=O)C(C)C)C(=O)N[C@@H](CC(C)C)C(N)=O (Ac-D[pY]VPML-NH2)
- IC50 [2]: 0.15 µM

Compound: CC[C@H](C)[C@H](NC(=O)[C@H](CCC(=O)O)NC(=O)[C@H](CCC(=O)O)NC(=O)[C@H](Cc1ccc(OC(C(=O)O)C(=O)O)cc1)NC(=O)[C@H](CCC(N)=O)NC(C)=O)C(=O)N1CCC[C@H]1C(N)=O
- IC50 [3]: 25 µM

Compound: CC[C@H](C)[C@H](NC(=O)[C@H](CCC(=O)O)NC(=O)[C@H](Cc1ccc(OC(C(=O)O)C(=O)O)cc1)NC(=O)[C@H](Cc1ccc(OC(C(=O)O)C(=O)O)cc1)NC(=O)[C@H](CCC(N)=O)NC(C)=O)C(=O)N1CCC[C@H]1C(N)=O
- IC50 [3]: 22.8 µM

Compound: CC[C@H](C)[C@H](NC(=O)[C@H](Cc1ccc(OP(=O)(O)O)cc1)NC(=O)[C@H](CC(N)=O)NC(=O)[C@H](CC(C)C)NC(C)=O)C(=O)N[C@@H](CC(=O)O)C(=O)N[C@@H](CC(C)C)C(=O)N[C@@H](CC(=O)O)C(=O)N[C@@H](CC(C)C)C(=O)N[C@H](C(N)=O)C(C)C (Ac-LN[pY]IDLDLV-NH2)
- IC50 [4]: 1.54 µM

Further lines, results first:

- IC50 [1]: 120 µM
Compound: CC[C@H](C)[C@H](NC(=O)[C@H](CC(N)=O)NC(=O)[C@@H](NC(=O)[C@H](Cc1ccc(OC(C(=O)O)C(=O)O)cc1)NC(=O)[C@H](CC(N)=O)NC(C)=O)C(C)C)C(=O)N[C@@H](CCC(=O)O)C(N)=O (Ac-NY(X1)VNIE-NH2)

- IC50 [3]: 3.2 µM
Compound: CC[C@H](C)[C@H](NC(=O)[C@H](CCC(=O)O)NC(=O)[C@H](CCC(=O)O)NC(=O)[C@H](Cc1ccc(OP(=O)(O)O)cc1)NC(=O)[C@H](CCC(N)=O)NC(C)=O)C(=O)N1CCC[C@H]1C(N)=O

- IC50 [4]: 22 µM
Compound: CC[C@H](C)[C@H](NC(=O)[C@H](Cc1ccc(OC(C(=O)O)C(=O)O)cc1)NC(=O)[C@H](CC(N)=O)NC(=O)[C@H](CC(C)C)NC(C)=O)C(=O)N[C@@H](CC(=O)O)C(=O)N[C@@H](CC(C)C)C(=O)N[C@@H](CC(=O)O)C(=O)N[C@@H](CC(C)C)C(=O)N[C@H](C(N)=O)C(C)C (Ac-LNY(X1)IDLDLV-NH2)
